This note sets out measurements from patent US10471046B2, “Method for treating, preventing, or reducing the risk of skin infection” (Melinta Subsidiary Corp., priority 2014, dated 2019).

This assay deals with S. aureus. The assay can be described thus: Minimum inhibitory concentrations (MICs) for S. aureus of exemplary compounds (Table 2). Format: cell-based. The conditions noted are these: Staphylococcus aureus, read-out: MICs. The procedure, abridged: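 Growth of S. aureus in media with or without compound, by broth microdilution in microtiter trays following NCCLS M7-A5 guidelines. Values are MICs in μg/mL.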

[1] abbreviates: minimum inhibitory concentrations for S. aureus.

SMILES strings stand for the structures. ≈ marks a conversion by molar mass, not a printed value. Where two headings read alike, the source gives them in different places.

On to `CC(=O)NC[C@H]1CN(c2ccc(-c3ccc(S(=O)(=O)NCCc4ccccn4)cc3)c(F)c2)C(=O)O1` [Compound 3007, N-{3-[2-Fluoro-4′-(2-pyridin-2-yl-ethylsulfamoyl)-biphenyl-4-yl]-2-oxo-oxazolidin-5-(S)-ylmethyl}-acetamide], for which the MIC under setting [1] was found to be 1 µg/mL (≈ 1.95 µM).

Turning to `CC(=O)NC[C@H]1CN(c2ccc(-c3ccc(CNCc4nccs4)cc3)c(F)c2)C(=O)O1` [Compound 4074, N-[3-(2-Fluoro-4′-{[(thiazol-2-ylmethyl)-amino]-methyl}-biphenyl-4-yl)-2-oxo-oxazolidin-5-(S)-ylmethyl]-acetamide], the MIC under setting [1] worked out at 1 µg/mL (≈ 2.2 µM).

For `CC(=O)NC[C@H]1CN(c2ccc(-c3ccc(CNCc4nc5ccccc5s4)cc3)c(F)c2)C(=O)O1` [Compound 4121, N-[3-(4′-{[(Benzothiazol-2-ylmethyl)-amino]-methyl}-2-fluoro-biphenyl-4-yl)-2-oxo-oxazolidin-5-(S)-ylmethyl]-acetamide], under setting [1], the MIC amounted to 0.5 µg/mL (≈ 0.991 µM).

As to `CC(=O)NC[C@H]1CN(c2ccc(-c3ccc(C[S+]([O-])c4ccccn4)cc3)c(F)c2)C(=O)O1` (stereo partly drawn) [Compound 2023, N-{3-[2-Fluoro-4′-(pyridine-2-sulfinylmethyl)-biphenyl-4-yl]-2-oxo-oxazolidin-5-(S)-ylmethyl}-acetamide], the MIC under setting [1] came out at 1 µg/mL (≈ 2.14 µM).

For `CC(=O)NC[C@H]1CN(c2ccc(-c3ccc(CNCc4cccnc4F)cc3)c(F)c2)C(=O)O1` [Compound 4257, N-[3-(2-Fluoro-4′-{[(2-fluoro-pyridin-3-ylmethyl)-amino]-methyl}-biphenyl-4-yl)-2-oxo-oxazolidin-5-(S)-ylmethyl]-acetamide], the MIC under setting [1] worked out at 0.5 µg/mL (≈ 1.07 µM).

Turning to `CC(=O)NC[C@H]1CN(c2ccc(-c3ccc(CNCc4cccc(C#N)c4)cc3)c(F)c2)C(=O)O1` [Compound 4070, N-(3-{4′-[(3-Cyano-benzylamino)-methyl]-2-fluoro-biphenyl-4-yl}-2-oxo-oxazolidin-5-(S)-ylmethyl)-acetamide], the MIC under setting [1] is 1 µg/mL (≈ 2.12 µM).

For the compound `CC(=O)NC[C@H]1CN(c2ccc(-c3ccc(Cn4cc(C(=O)O)cn4)cc3)c(F)c2)C(=O)O1` [Compound 1051, 1-{4′-[5-(S)-(Acetylamino-methyl)-2-oxo-oxazolidin-3-yl]-2′-fluoro-biphenyl-4-ylmethyl}-1H-pyrazole-4-carboxylic acid], the MIC under setting [1] worked out at 1 µg/mL (≈ 2.21 µM).

Turning to `CC(=O)NC[C@H]1CN(c2ccc(-c3ccc(CNCC(F)(F)c4ccccn4)cc3)c(F)c2)C(=O)O1` [Compound 4177, N-(3-{4′-[(2,2-Difluoro-2-pyridin-2-yl-ethylamino)-methyl]-2-fluoro-biphenyl-4-yl}-2-oxo-oxazolidin-5-(S)-ylmethyl)-acetamide], the MIC under setting [1] stood at 4 µg/mL (≈ 8.02 µM).

Take `CC(=O)NC[C@H]1CN(c2ccc(-c3ccc(CNCCSc4nccs4)cc3)c(F)c2)C(=O)O1` [Compound 5006, N-[3-(2-Fluoro-4′-{[2-(thiazol-2-ylsulfanyl)-ethylamino]-methyl}-biphenyl-4-yl)-2-oxo-oxazolidin-5-(S)-ylmethyl]-acetamide]: the MIC under setting [1] was 1 µg/mL (≈ 2 µM).

For the compound `CC(=O)NC[C@H]1CN(c2ccc(-c3ccc(CNCc4nn(-c5ccccc5)nc4C)cc3)c(F)c2)C(=O)O1` [Compound 4146, N-[3-(2-Fluoro-4′-{[(5-methyl-2-phenyl-2H-[1,2,3]triazol-4-ylmethyl)-amino]-methyl}-biphenyl-4-yl)-2-oxo-oxazolidin-5-(S)-ylmethyl]-acetamide], under setting [1], the MIC is 4 µg/mL (≈ 7.57 µM).

`CC(=O)NC[C@H]1CN(c2ccc(-c3ccc(CNCc4ccc5ncccc5c4)cc3)c(F)c2)C(=O)O1` [Compound 4071, N-[3-(2-Fluoro-4′-{[(quinolin-6-ylmethyl)-amino]-methyl}-biphenyl-4-yl)-2-oxo-oxazolidin-5-(S)-ylmethyl]-acetamide]: the MIC under setting [1] is 2 µg/mL (≈ 4.01 µM).

On to `CC(=O)NC[C@H]1CN(c2ccc(-c3ccc(C(C)NCc4ccncc4)cc3)c(F)c2)C(=O)O1` (mixture of isomers) [Compound 4232, N-[3-(2-Fluoro-4′-{1-(R/S)-[(pyridin-4-ylmethyl)-amino]-ethyl}-biphenyl-4-yl)-2-oxo-oxazolidin-5-(S)-ylmethyl]-acetamide], for which, under setting [1], the MIC stood at 8 µg/mL.

With `CC(=O)NC[C@H]1CN(c2ccc(-c3ccc(CN4CC(C#N)C4)cc3)c(F)c2)C(=O)O1` [Compound 1022, N-{3-[4′-(3-Cyano-azetidin-1-ylmethyl)-2-fluoro-biphenyl-4-yl]-2-oxo-oxazolidin-5-(S)-ylmethyl}-acetamide], the MIC came to 0.25 µg/mL (≈ 0.592 µM).

With `CC(=O)NC[C@H]1CN(c2ccc(-c3ccc(CNCCSc4ncc[nH]4)cc3)c(F)c2)C(=O)O1` [Compound 5008, N-[3-(2-Fluoro-4′-{[2-(1H-imidazol-2-ylsulfanyl)-ethylamino]-methyl}-biphenyl-4-yl)-2-oxo-oxazolidin-5-(S)-ylmethyl]-acetamide], the MIC under setting [1] was 2 µg/mL (≈ 4.14 µM).

As to `CC(=O)NC[C@H]1CN(c2ccc(-c3ccc(SCc4ccncc4)cc3)c(F)c2)C(=O)O1` [Compound 3001, N-{3-[2-Fluoro-4′-(pyridin-4-ylmethylsulfanyl)-biphenyl-4-yl]-2-oxo-oxazolidin-5-(S)-ylmethyl}-acetamide], the MIC under setting [1] is 1 µg/mL (≈ 2.21 µM).

`CC(=O)NC[C@H]1CN(c2ccc(-c3ccc(CSc4nnc(N)[nH]4)cc3)c(F)c2)C(=O)O1` [Compound 2028, N-{3-[4′-(5-Amino-4H-[1,2,4]triazol-3-ylsulfanylmethyl)-2-fluoro-biphenyl-4-yl]-2-oxo-oxazolidin-5-(S)-ylmethyl}-acetamide]: under setting [1], the MIC is 0.25 µg/mL (≈ 0.548 µM).

As to `CC(=O)NC[C@H]1CN(c2ccc(-c3ccc(CNCC(=O)N4CCOCC4)cc3)c(F)c2)C(=O)O1` [Compound 4316, N-(3-{2-Fluoro-4′-[(2-morpholin-4-yl-2-oxo-ethylamino)-methyl]-biphenyl-4-yl}-2-oxo-oxazolidin-5-(S)-ylmethyl)-acetamide], under setting [1], the MIC came out at 4 µg/mL (≈ 8.26 µM).

With `CC(=O)NC[C@H]1CN(c2ccc(-c3ccc(CNC[C@H](O)CSc4nnc[nH]4)cc3)c(F)c2)C(=O)O1` [Compound 5011], the MIC under setting [1] is 4 µg/mL (≈ 7.77 µM).

Take `CC(=O)NC[C@H]1CN(c2ccc(-c3ccc(CN4CC[C@H](O)C4)cc3)c(F)c2)C(=O)O1` [Compound 1087, N-{3-[2-Fluoro-4′-(3-(S)-hydroxy-pyrrolidin-1-ylmethyl)-biphenyl-4-yl]-2-oxo-oxazolidin-5-(S)-ylmethyl}-acetamide]: under setting [1], the MIC was 4 µg/mL (≈ 9.36 µM).

On to `CCc1ncc(CNCc2ccc(-c3ccc(N4C[C@H](CNC(C)=O)OC4=O)cc3F)cc2)[nH]1` [Compound 4124, N-[3-(4′-{[(2-Ethyl-3H-imidazol-4-ylmethyl)-amino]-methyl}-2-fluoro-biphenyl-4-yl)-2-oxo-oxazolidin-5-(S)-ylmethyl]-acetamide], for which the MIC under setting [1] stood at 16 µg/mL (≈ 34.4 µM).

In the case of `CC(=O)NC[C@H]1CN(c2ccc(-c3ccc(CNCc4cccc5cnccc45)cc3)c(F)c2)C(=O)O1` [Compound 4065, N-[3-(2-Fluoro-4′-{[(isoquinolin-5-ylmethyl)-amino]-methyl}-biphenyl-4-yl)-2-oxo-oxazolidin-5-(S)-ylmethyl]-acetamide], the MIC under setting [1] amounted to 2 µg/mL (≈ 4.01 µM).

As to `CC(=O)NC[C@H]1CN(c2ccc(-c3ccc(CNCc4[nH]ncc4Br)cc3)c(F)c2)C(=O)O1` [Compound 4169, N-[3-(4′-{[(4-Bromo-2H-pyrazol-3-ylmethyl)-amino]-methyl}-2-fluoro-biphenyl-4-yl)-2-oxo-oxazolidin-5-(S)-ylmethyl]-acetamide], the MIC under setting [1] turned out to be 2 µg/mL (≈ 3.87 µM).

In the case of `CC(=O)NC[C@H]1CN(c2ccc(-c3ccc(Cn4cccn4)nc3)c(F)c2)C(=O)O1` [Compound 1076, N-{3-[3-Fluoro-4-(6-pyrazol-1-ylmethyl-pyridin-3-yl)-phenyl]-2-oxo-oxazolidin-5-(S)-ylmethyl}-acetamide], the MIC under setting [1] was 1 µg/mL (≈ 2.44 µM).

For `CSCCN(Cc1ccccc1)C[C@@H](O)c1ccc(-c2ccc(N3C[C@H](CNC(C)=O)OC3=O)cc2F)cc1` [Compound 4248, N-[3-(4′-{2-[Benzyl-(2-methylsulfanyl-ethyl)-amino]-1-(S)-hydroxy-ethyl}-2-fluoro-biphenyl-4-yl)-2-oxo-oxazolidin-5-(S)-ylmethyl]-acetamide], the MIC under setting [1] worked out at 4 µg/mL (≈ 7.25 µM).

As to `CC(=O)NC[C@H]1CN(c2ccc(-c3ccc([C@H](O)CN4CCCC(F)(F)C4)cc3)c(F)c2)C(=O)O1` [Compound 1075, N-(3-{4′-[2-(3,3-Difluoro-piperidin-1-yl)-1-(S)-hydroxy-ethyl]-2-fluoro-biphenyl-4-yl}-2-oxo-oxazolidin-5-(S)-ylmethyl)-acetamide], the MIC under setting [1] is 2 µg/mL (≈ 4.07 µM).

For `CC(=O)NC[C@H]1CN(c2ccc(-c3ccc(CSc4cnn[nH]4)cc3)c(F)c2)C(=O)O1` [Compound 2016, N-{3-[2-Fluoro-4′-(3H-[1,2,3]triazol-4-ylsulfanylmethyl)-biphenyl-4-yl]-2-oxo-oxazolidin-5-(S)-ylmethyl}-acetamide], the MIC under setting [1] turned out to be 0.25 µg/mL (≈ 0.566 µM).

Regarding `CC(=O)NC[C@H]1CN(c2ccc(-c3ccc(CNS(=O)(=O)c4cccc5cccnc45)cc3)c(F)c2)C(=O)O1` [Compound 2051, N-(3-{2-Fluoro-4′-[(quinoline-8-sulfonylamino)-methyl]-biphenyl-4-yl}-2-oxo-oxazolidin-5-(S)-ylmethyl)-acetamide], the MIC under setting [1] amounted to 4 µg/mL (≈ 7.29 µM).

With `CC(=O)NC[C@H]1CN(c2ccc(-c3ccc([C@H](O)CN(C)Cc4ccccc4)cc3)c(F)c2)C(=O)O1` [Compound 4251, N-(3-{4′-[2-(Benzyl-methyl-amino)-1-(S)-hydroxy-ethyl]-2-fluoro-biphenyl-4-yl}-2-oxo-oxazolidin-5-(S)-ylmethyl)-acetamide], under setting [1], the MIC was determined as 2 µg/mL (≈ 4.07 µM).

As to `CC(=O)NC[C@H]1CN(c2ccc(-c3ccc(CN4CCN(C=O)CC4)cc3)c(F)c2)C(=O)O1` [Compound 1006, N-{3-[2-Fluoro-4′-(4-formyl-piperazin-1-ylmethyl)-biphenyl-4-yl]-2-oxo-oxazolidin-5-(S)-ylmethyl}-acetamide], the MIC under setting [1] was found to be 0.5 µg/mL (≈ 1.1 µM).

As to `CC(=O)NC[C@H]1CN(c2ccc(-c3ccc(CN(C)Cc4cnc5ccccc5c4)cc3)c(F)c2)C(=O)O1` [Compound 4215, N-(3-{2-Fluoro-4′-[(methyl-quinolin-3-ylmethyl-amino)-methyl]-biphenyl-4-yl}-2-oxo-oxazolidin-5-(S)-ylmethyl)-acetamide], the MIC under setting [1] amounted to 0.25 µg/mL (≈ 0.488 µM).
